Test results published in paper PMC8802890, “Identification of U937^JAK3-M511I Acute Myeloid Leukemia Cells as a Sensitive Model to JAK3 Inhibitor” (Frontiers in Oncology, 2022).

Experiments:
JAK3 = biological target: T1, JAK3 (Homo sapiens, UniProt P52333); assay: Z'-Lyte kinase assay, JAK3; format: biochemical
T1 construct: purchased Invitrogen (Waltham, MA, USA)
T1 sequence (P52333 1-1124): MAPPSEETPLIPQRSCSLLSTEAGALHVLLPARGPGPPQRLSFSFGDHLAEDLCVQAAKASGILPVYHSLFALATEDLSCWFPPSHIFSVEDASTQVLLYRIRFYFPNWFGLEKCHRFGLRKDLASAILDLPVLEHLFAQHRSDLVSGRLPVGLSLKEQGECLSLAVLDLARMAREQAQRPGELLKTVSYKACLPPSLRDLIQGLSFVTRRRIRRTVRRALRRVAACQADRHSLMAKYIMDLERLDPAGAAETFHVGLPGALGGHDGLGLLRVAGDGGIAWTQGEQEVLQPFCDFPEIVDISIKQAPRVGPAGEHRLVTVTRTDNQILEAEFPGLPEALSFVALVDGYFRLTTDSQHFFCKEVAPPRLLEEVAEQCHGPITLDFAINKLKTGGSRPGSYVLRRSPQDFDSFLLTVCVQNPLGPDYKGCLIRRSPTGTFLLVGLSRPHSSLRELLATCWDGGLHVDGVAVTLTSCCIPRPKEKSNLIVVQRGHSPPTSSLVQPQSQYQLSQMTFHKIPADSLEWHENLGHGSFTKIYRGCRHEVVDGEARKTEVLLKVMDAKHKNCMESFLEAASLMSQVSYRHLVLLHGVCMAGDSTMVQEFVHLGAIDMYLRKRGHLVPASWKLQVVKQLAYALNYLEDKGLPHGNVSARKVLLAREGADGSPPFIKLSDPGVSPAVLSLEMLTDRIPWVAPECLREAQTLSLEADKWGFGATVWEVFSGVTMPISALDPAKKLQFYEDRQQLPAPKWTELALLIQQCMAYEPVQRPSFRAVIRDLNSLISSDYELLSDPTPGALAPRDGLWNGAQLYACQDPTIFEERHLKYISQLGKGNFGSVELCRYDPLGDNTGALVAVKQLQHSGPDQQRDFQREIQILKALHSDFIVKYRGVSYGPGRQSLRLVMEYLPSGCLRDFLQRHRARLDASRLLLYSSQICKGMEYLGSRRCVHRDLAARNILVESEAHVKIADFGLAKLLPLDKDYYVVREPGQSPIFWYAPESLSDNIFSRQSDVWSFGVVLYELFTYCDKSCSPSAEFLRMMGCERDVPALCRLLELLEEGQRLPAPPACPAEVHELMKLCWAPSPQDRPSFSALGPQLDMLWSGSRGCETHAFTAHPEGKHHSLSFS

U937 AML cells = assay: CCK-8 anti-proliferation, U937; conditions: for IC50: Homo sapiens, U-937, 72 h, read-out: IC50 Cell line U937
Ba/F3-TEL-JAK1 = assay: CCK-8 anti-proliferation, Ba/F3-TEL-JAK1; format: cell-based, Murine; conditions: Mus musculus, CCK-8, 72 h, mean ± SD
Ba/F3-TEL-JAK2 = assay: CCK-8 anti-proliferation, Ba/F3-TEL-JAK2; format: cell-based, Murine; conditions: Mus musculus; CCK-8, 72 h; mean ± SD
Ba/F3-JAK3 (M511I) = assay: CCK-8 anti-proliferation, Ba/F3-JAK3 (M511I); format: cell-based, Murine; conditions: Mus musculus; CCK-8, 72 h; mean ± SD
Ba/F3 = assay: CCK-8 anti-proliferation, parental Ba/F3; format: cell-based, Murine; conditions: Mus musculus, BaF3; parental cells, with IL-3; CCK-8, 72 h; mean ± SD
Daudi = assay: CCK-8 anti-proliferation, Daudi; conditions: read-out: IC50 Cell line Daudi; CCK-8, 72 h; mean ± SD
HL-60 = assay: CCK-8 anti-proliferation, HL-60; conditions: read-out: IC50 Cell line HL-60; CCK-8, 72 h; mean ± SD
MOLT-4 = assay: CCK-8 anti-proliferation, MOLT-4; conditions: read-out: IC50 Cell line MOLT-4; CCK-8, 72 h; mean ± SD
Jurkat = assay: CCK-8 anti-proliferation, Jurkat; conditions: read-out: IC50 Cell line Jurkat; CCK-8, 72 h; mean ± SD
MV4-11 = assay: CCK-8 anti-proliferation, MV4-11; conditions: read-out: IC50 Cell line MV4-11; CCK-8, 72 h; mean ± SD
OCI-LY3 = assay: CCK-8 anti-proliferation, OCI-LY3; conditions: read-out: IC50 Cell line OCI-LY3; CCK-8, 72 h; mean ± SD
JAK1 = biological target: T2, JAK1 (Homo sapiens, UniProt P23458); assay: Z'-Lyte kinase assay, JAK1; format: biochemical
T2 construct: purchased Invitrogen (Waltham, MA, USA)
T2 sequence (P23458 whole entry): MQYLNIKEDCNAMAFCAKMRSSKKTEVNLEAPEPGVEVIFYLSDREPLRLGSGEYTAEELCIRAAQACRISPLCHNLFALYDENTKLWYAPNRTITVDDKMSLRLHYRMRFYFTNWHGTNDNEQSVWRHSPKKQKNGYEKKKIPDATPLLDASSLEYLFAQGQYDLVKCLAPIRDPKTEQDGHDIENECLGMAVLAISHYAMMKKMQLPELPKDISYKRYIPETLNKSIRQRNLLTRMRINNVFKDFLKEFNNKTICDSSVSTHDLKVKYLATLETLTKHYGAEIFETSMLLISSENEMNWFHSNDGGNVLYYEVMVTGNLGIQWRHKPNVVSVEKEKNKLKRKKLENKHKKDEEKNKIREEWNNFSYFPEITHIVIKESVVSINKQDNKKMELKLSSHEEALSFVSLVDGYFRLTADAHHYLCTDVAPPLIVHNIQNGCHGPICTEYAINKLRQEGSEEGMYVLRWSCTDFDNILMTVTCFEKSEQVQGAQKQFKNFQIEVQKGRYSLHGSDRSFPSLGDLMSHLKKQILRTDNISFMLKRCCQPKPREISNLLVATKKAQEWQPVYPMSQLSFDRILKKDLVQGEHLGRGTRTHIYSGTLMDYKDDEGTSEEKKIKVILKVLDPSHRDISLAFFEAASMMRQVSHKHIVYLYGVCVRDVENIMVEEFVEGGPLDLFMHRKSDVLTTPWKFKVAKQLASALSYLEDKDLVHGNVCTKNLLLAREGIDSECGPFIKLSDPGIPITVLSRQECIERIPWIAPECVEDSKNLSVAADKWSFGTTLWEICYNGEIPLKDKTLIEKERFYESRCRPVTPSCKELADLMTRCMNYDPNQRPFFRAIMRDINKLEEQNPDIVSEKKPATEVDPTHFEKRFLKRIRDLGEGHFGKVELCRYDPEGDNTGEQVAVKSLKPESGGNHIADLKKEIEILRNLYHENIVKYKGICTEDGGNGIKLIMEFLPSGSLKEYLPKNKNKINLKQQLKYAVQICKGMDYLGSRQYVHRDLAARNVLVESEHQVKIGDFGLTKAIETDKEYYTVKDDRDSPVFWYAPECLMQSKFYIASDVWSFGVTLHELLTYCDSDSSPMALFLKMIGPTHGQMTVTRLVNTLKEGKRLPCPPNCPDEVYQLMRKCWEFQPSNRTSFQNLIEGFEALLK

U937 cells [1] = assay: Cell cycle analysis by flow cytometry, U937; format: cell-based, human
OCI-LY3 cells = assay: Cell cycle analysis by flow cytometry, OCI-LY3; format: cell-based; conditions: PF-06651600 treatment
U937 cells [2] = assay: Apoptosis assay (7-AAD / Annexin V-PE flow cytometry), U937; format: cell-based, human; conditions: PF-06651600 treatment
[3] = tested on: JAK3-STAT3/5 signal pathway in U937 cells; assay: Western blotting of JAK3-STAT3/5 signal pathway, U937; format: cell-based, human
[4] = tested on: JAK3-STAT3/5 signal pathway in Ba/F3-JAK3 M511I cell line; assay: Western blotting of JAK3-STAT3/5 signal pathway, Ba/F3-JAK3 M511I; format: cell-based, Murine
Source text: Murine Ba/F3 cells were purchased from DSMZ (Deutsche Sammlung von Mikroorganismen und Zellkulturen). Ba/F3 cell lines stably expressing JAK1 and JAK2 were self-established through electroporation of pCDNA3.1-TEL plasmids. JAK3 (M511I) was produced from pCDNA3.1 plasmids using the Amaxa Cell Line Nucleofector Kit V (Lonza, Cologne, Germany). Stable cell lines were selected by G418 (Merck, NJ, USA) and subsequent withdrawal of IL-3 (R&D, MN, USA). All Ba/F3 stable cell lines were confirmed by positive drug tests, DNA sequencing, and Western blotting (WB) analysis. Parental Ba/F3 cells were maintained in RPMI-1640 supplemented with 10% FBS (Biological Industries) and 1% penicillin-streptomycin (Biological Industries) and 10 ng/ml of IL-3, while all Ba/F3 stable cell lines were cultured in the same medium without IL-3.
Cells at a cell density of 8 × 10^5 cells/ml were treated with different concentrations of compounds or DMSO for the indicated time. The cells were then lysed with 1× SDS sample lysis buffer, as recommended by CST. […] The protein signals were detected with Amersham Imager 600 system (GE, Boston, MA, USA) using an ECL Western blotting detection kit (Thermo Fisher Scientific, Waltham, MA, USA).

| Compound | JAK3 kinase inhibition (JAK3) | antiproliferative activity against U937 cells (U937 AML cells) | IC50 (Ba/F3-TEL-JAK1) [µM] | IC50 (Ba/F3-TEL-JAK2) [µM] | IC50 (Ba/F3-JAK3 (M511I)) [µM] | IC50 (Ba/F3) [µM] | IC50 (U937 AML cells) [µM] | IC50 (Daudi) [µM] | IC50 (HL-60) [µM] | IC50 (MOLT-4) [µM] | IC50 (Jurkat) [µM] | IC50 (MV4-11) [µM] | IC50 (OCI-LY3) [µM] | other results |
| --- | --- | --- | --- | --- | --- | --- | --- | --- | --- | --- | --- | --- | --- | --- |
| CCS(=O)(=O)N1CC(CC#N)(n2cc(-c3ncnc4[nH]ccc34)cn2)C1 [Baricitinib] | weakly suppressed the activity of JAK3 | micromolar IC50 values |  |  |  |  |  |  |  |  |  |  |  |  |
| Cc1cnc(Nc2ccc(OCCN3CCCC3)cc2)nc1Nc1cccc(S(=O)(=O)NC(C)(C)C)c1 [Fedratinib] | weakly suppressed the activity of JAK3 | micromolar IC50 values | 1.96 ± 0.24 | 1.83 ± 0.06 | 2.84 ± 0.39 | 3.47 ± 0.33 | 2.53 ± 0.17 | 3.92 ± 0.21 | 2.44 ± 0.16 | 2.72 ± 0.54 | 1.42 ± 0.32 | > 10 | 3.18 ± 0.13 |  |
| O=C(Nc1nc2cccc(-c3ccc(CN4CCS(=O)(=O)CC4)cc3)n2n1)C1CC1 [Filgotinib] | did not obviously suppress JAK3 kinase activity | almost totally inactive | > 10 | > 10 | 7.19 ± 2.5 | > 10 | > 10 | > 10 | > 10 | > 10 | > 10 | > 10 | > 10 |  |
| C=CC(=O)N1C[C@H](Nc2ncnc3[nH]ccc23)CC[C@@H]1C [PF-06651600, ritlecitinib] |  |  | > 10 | > 10 | 0.03 ± 0.01 | > 10 | 0.027 ± 0.004 | > 10 | > 10 | > 10 | > 10 | > 10 | > 10 | potency against JAK1 less than against JAK3 (JAK1): approximately 3,000 fold; cell cycle arrest (U937 cells [1]; PF-06651600 treatment): dose-dependent G0/G1 phase cell cycle arrest; cell fate or phenotypes (OCI-LY3 cells): did not obviously affect the cell fate or the phenotypes; apoptosis (U937 cells [2]): inducing apoptosis only barely; activation of JAK3 and the downstream signals [3]: potently suppressed the activation of JAK3 and the downstream signals in a dose-dependent manner; downstream signaling factors of JAK3 [4]: inhibited the downstream signaling factors of JAK3; phosphorylation of JAK3 [4]: enhanced the phosphorylation of JAK3 |
| NC(=O)c1cnc2[nH]ccc2c1N[C@@H]1[C@@H]2CC3C[C@H]1C[C@@](O)(C3)C2 [Peficitinib] |  |  | 0.6 ± 0.08 | 1.29 ± 0.09 | 0.1 ± 0.05 | 1.56 ± 0.09 | 0.09 ± 0.02 | 5.82 ± 0.15 | 4.93 ± 1.22 | 2.22 ± 0.08 | 2.32 ± 0.82 | 9.19 ± 0.98 | 3.42 ± 0.01 |  |
| N#CC[C@H](C1CCCC1)n1cc(-c2ncnc3[nH]ccc23)cn1 [Ruxolitinib] | reasonable inhibition of JAK3 | sub-micromole antiproliferative activity |  |  |  |  | 0.7 ± 0.11 | > 10 | > 10 | > 10 | > 10 | > 10 | > 10 |  |
| CC[C@@H]1CN(C(=O)NCC(F)(F)F)C[C@@H]1c1cnc2cnc3[nH]ccc3n12 [Upadacitinib] |  |  | 0.075 ± 0.008 | 0.18 ± 0.01 | 0.098 ± 0.047 | 0.9 ± 0.12 | 0.25 ± 0.03 | > 10 | > 10 | > 10 | > 10 | > 10 | > 10 |  |
| Si-JAK3: Synthetic JAK3 small interfering RNA from RiboBio; si-JAK3: 5′-GCAGACACTTAGCTTGGAA-3′ (chemistry not fully specified) |  |  |  |  |  |  |  |  |  |  |  |  |  | cell cycle arrest (U937 cells [1]; JAK3 siRNA): induced G0/G1 phase arrest; activation of JAK3-STAT3/5 signal pathway ([3]; JAK3 siRNA for 72 h): suppressed activation of JAK3-STAT3/5 signal pathway |
